Results reported in patent publication US6982258B2, “Low-calcemic oxime analogs of 1α,25-dihydroxy vitamin D3” (Cytochroma Inc., priority 2001, dated 2006).

Target: T1, CYP24 (Homo sapiens, UniProt Q07973)
T1 construct: When the HPK1A-ras cells were 80-90% confluent, add 1 μL 10^−5 M 1,25(OH)2D3; endogenous in cells; host or cells: HPK1A-ras cells induced with 10^-8 M 1,25(OH)2D3
T1 sequence (Q07973 36-514): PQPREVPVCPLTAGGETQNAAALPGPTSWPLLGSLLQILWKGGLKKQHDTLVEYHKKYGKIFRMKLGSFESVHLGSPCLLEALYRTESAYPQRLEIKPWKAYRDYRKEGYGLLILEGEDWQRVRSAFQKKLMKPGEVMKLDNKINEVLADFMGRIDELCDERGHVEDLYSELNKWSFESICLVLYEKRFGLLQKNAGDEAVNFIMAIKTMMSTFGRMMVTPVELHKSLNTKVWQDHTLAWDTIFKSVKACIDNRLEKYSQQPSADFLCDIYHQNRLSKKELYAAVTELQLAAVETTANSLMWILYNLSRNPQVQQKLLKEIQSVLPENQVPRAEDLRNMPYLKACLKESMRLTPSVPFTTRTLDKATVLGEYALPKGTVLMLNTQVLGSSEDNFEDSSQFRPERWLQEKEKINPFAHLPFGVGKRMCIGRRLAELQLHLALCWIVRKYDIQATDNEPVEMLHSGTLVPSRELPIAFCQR
Assay: CYP24 enzyme assay (induced HPK1A-ras cells)
Type: cell-based
Conditions: ketoconazole as control standard
Procedure: CYP24 Enzyme Assay (Induced […] Cells)
• 1,25(OH)2D3 10^−5 M • [^3H]-1,25(OH)2D3 25,000 CPM/μL • HPK1A-ras cells • 48-well plate • Methanol • Dichlorimethane • Saturated KCI:KCI 30 g, H2O400 ml (ii) Procedure: • 1. Induction of HPK1A-ras cells (The day before assay) • When the HPK1A-ras cells were 80-90% confluent, add 1 μL 10^−5 M 1,25(OH)2D3 to 1 mL medium in the plate (final concentration is 10^−8 M). • 2. Preparation of cell suspension • After 18 to 20 hours induction, removed the medium and washed the cell twice with PBS. Then tripsinized the cells from plate, centrifuge (2,000 rpm, 5 min) and suspended cells pellet in DMEM medium+1% BSA. • Counted the cells and adjust cells density to 250,000/150 μL, add 150 μL cell suspension to each well in 48-well plate. (including 3 wells as no cell control, and 3 well cells without drug or inhibitor as control). • 3. Added 25 μL ketoconazole (final concentration 10^−5 M, 10^−6 M, 10^−7 M, 10^−8 M) or drugs into each designated well. Keep the plate in 37° C. for 10 min. • 4. Preparation of substrate • Took certain amount of DMEM+1% BSA medium (25*Well number+200)μL to a tube, added certain amount of ^3H-1,25(OH)2D3 (well number+2) μL and certain amount of 100 mM DPPD (well number/5)μL and mixed them by vortex. • 5. Incubation • Added 25 μL substrate to each well, incubated the plate at 37° C. for 3 hour. • Added 25 μL substrate to counting plate (2 well) as a total count. • 6. Lipid extraction and counting • Added 500 μL methanol to each well to stop the reaction, transfered them to tube • Added 250 μL dichloromethane and vortex. • Added 250 μL dichloromethane and 250 μL saturated KCI, and vortexed. • Centrifuged at 4000 rpm for 5 min. • Transfered 100 μL of aqueous phase (upper phase) to counting plastic counting plate. Added 600 μL of scintillation fluid to each well. Counted the plate in scintillation counter. • 7. Calculation enzyme activity • CPM of cell control after subtraction of CPM of NCC is as 100% enzyme activity. • Enzyme activity=(CPM in test compounds well−CPM in NCC well)/(CPM in Cell control−CPM in NCC well)* 100% • Dilution of Ketoconazole • Stock 10^−2 M
• Dilution of test compounds • Stock 10^−3 M
In the case of C=C1/C(=C\C=C2/CCC[C@]3(C)C([C@H](C)CCC/C(=N\Oc4ccccc4)C(C)(C)C)=CC[C@@H]23)C[C@@H](O)C[C@@H]1O [I(i)], the “inhibition of CYP24 activity compared to ketoconazole” value (from here on “inhibition … compared to ketoconazole”) is reported as “significantly greater inhibition of CYP24 than ketoconazole”.
For C=C1/C(=C\C=C2/CCC[C@]3(C)C([C@H](C)CCC/C(=N\O)C(C)(C)C)=CC[C@@H]23)C[C@@H](O)C[C@@H]1O [I(a)], the “inhibition … compared to ketoconazole” value was “significantly greater inhibition of CYP24 than ketoconazole”.
With C=CCO/N=C(\CCC[C@@H](C)C1=CC[C@H]2/C(=C/C=C3/C[C@@H](O)C[C@H](O)C3=C)CCC[C@]12C)C(C)(C)C [I(g)] the “inhibition … compared to ketoconazole” value was “significantly greater inhibition of CYP24 than ketoconazole”.
For C=C1/C(=C\C=C2/CCC[C@]3(C)C([C@H](C)CCC/C(=N\OC)C(C)(C)C)=CC[C@@H]23)C[C@@H](O)C[C@@H]1O [I(c)], the “inhibition … compared to ketoconazole” value was “significantly greater inhibition of CYP24 than ketoconazole”.
In the case of C=C1/C(=C\C=C2/CCC[C@]3(C)C([C@H](C)CCC/C(=N\OCC)C(C)(C)C)=CC[C@@H]23)C[C@@H](O)C[C@@H]1O [I(e)], the “inhibition … compared to ketoconazole” value is reported as “significantly greater inhibition of CYP24 than ketoconazole”.

Test system: not listed separately
Assay: Calcium excretion (hypercalcemia assay, rat urine)
Type: in vivo
Conditions: administered orally daily for one week
Procedure: As a measure of their safety in animals, compound of Formula I(a) was administered orally to rats daily for 1 week at a similar dose (0.5 microgram/Kg body weight) to calcitriol, using a procedure described previously (Posner G. H. et al. J. Med. Chem. 1999, 42, 3425-3435). A graph showing the effect of compound I(a) (indicated as BH 1625(NOH)) on calcium levels in rat urine in comparison to calcitriol (1α,25-Dihydroxy vitamin D3) is shown in FIG. 6.
In the case of C=C1/C(=C\C=C2/CCC[C@]3(C)[C@@H]([C@H](C)CCCC(C)(C)O)CC[C@@H]23)C[C@@H](O)C[C@@H]1O [calcitriol, 1α,25-Dihydroxy vitamin D3], the “levels of calcium in the urine” value is reported as “significant increase in calcium levels in the urine”.
